Where a SMILES comes first, the peptide text is derived from it. Bridges are numbered along the chain shown (N, C = ends). [ ]: non-standard residue; d: D form. The star is where a group is joined. Trp(1-CH2CO2Me) = COC(=O)Cn1cc(C[C@H](N)C(=O)O)c2ccccc21; Trp(1-CH2COOH) = N[C@@H](Cc1cn(CC(=O)O)c2ccccc12)C(=O)O; X19 = c1ccc(N2CCN(c3ncnc(*)n3)CC2)cc1; Hyp = O=C(O)[C@@H]1C[C@@H](O)CN1; X20 = Cc1ccc2[nH]c3c(*)ncnc3c2c1; X13 = Clc1ccc2oc3c(*)ncnc3c2c1; X16 = c1ccc2c(c1)sc1c(*)ncnc12; X5 = c1ccc2c(c1)oc1c(*)ncnc12; NMeNle = CCCC[C@H](NC)C(=O)O; NMeA = CN[C@@H](C)C(=O)O; Dab = NCC[C@H](N)C(=O)O; X21 = Fc1ccc2nc(*)sc2c1; Dap = NC[C@H](N)C(=O)O; X6 = c1ccc2nc(*)cnc2c1; X9 = Fc1cccc2sc(*)nc12; X1 = c1ccc2sc(*)nc2c1; X15 = c1cnc(*)cn1

This test deals with T1, PD-1/PD-L1 interaction (PD-1-Ig / PD-L1-His) (Homo sapiens, UniProt Q9NZQ7).
T1 construct: TVMV protease site (linker) (C); made in house; host or cells: HEK293T cells
T1 sequence (Q9NZQ7 18-239): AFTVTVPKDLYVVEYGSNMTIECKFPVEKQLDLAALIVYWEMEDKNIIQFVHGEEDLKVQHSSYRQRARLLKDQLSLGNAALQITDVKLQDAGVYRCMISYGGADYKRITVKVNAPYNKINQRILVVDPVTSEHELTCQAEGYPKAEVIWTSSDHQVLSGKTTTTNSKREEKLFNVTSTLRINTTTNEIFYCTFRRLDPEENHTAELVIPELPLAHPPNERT
The test can be described thus: PD-1/PD-L1 Homogenous Time-Resolved Fluorescence (HTRF) binding assay. The settings on record: PD-L1-His 10 nM final, PD-1-Ig 20 nM final; inhibitors pre-incubated with PD-L1-His for 15 m. From the text:
The ability of the compounds of formula (I) to bind to PD-L1 was investigated using a PD-1/PD-L1 Homogenous Time-Resolved Fluorescence (HTRF) binding assay.
The interaction of PD-1 and PD-L1 can be assessed using soluble, purified preparations of the extracellular domains of the two proteins. The PD-1 and PD-L1 protein extracellular domains were expressed as fusion proteins with detection tags, for PD-1, the tag was the Fc portion of Immunoglobulin (PD-1-Ig) and for PD-L1 it was the 6 histidine motif (PD-L1-His). All binding studies were performed in an HTRF assay buffer consisting of dPBS supplemented with 0.1% […] bovine serum albumin and 0.05% (v/v) Tween-20. For the h/PD-L1-His binding assay, inhibitors were pre-incubated with PD-L1-His (10 nM final) for 15 m in 4 μl of assay buffer, followed by addition of PD-1-Ig (20 nM final) in 1 μl of assay buffer and further incubation for 15 m. HTRF detection was achieved using europium crypate-labeled anti-Ig (1 nM final) and allophycocyanin (APC) labeled anti-His (20 nM final). Antibodies were diluted in HTRF detection buffer and 5 μl was dispensed on top of the binding reaction. The reaction mixture was allowed to equilibrate for 30 minutes and the resulting signal (665 nm/620 nm ratio) was obtained using an EnVision fluorometer. Additional binding assays were established between the human proteins PD-1-Ig/PD-L2-His (20 & 5 nM, respectively) and CD80-His/PD-L1-Ig (100 & 10 nM, respectively).
Recombinant Proteins: Human PD-1 (25-167) with a C-terminal human Fc domain of immunoglobulin G (Ig) epitope tag [hPD-1 (25-167)-3S-IG] and human PD-L1 (18-239) with a C-terminal His epitope tag [hPD-L1(18-239)-TVMV-His] were expressed in HEK293T cells and purified sequentially by ProteinA affinity chromatography and size exclusion chromatography. Human PD-L2-His and CD80-His was obtained through commercial sources.
Table 1 lists the IC50 values for representative examples of this disclosure measured in the PD-1/PD-L1 Homogenous Time-Resolved Fluorescence (HTRF) binding assay.
For `CCCC[C@H]1C(=O)N(C)[C@@H](CCCC)C(=O)N[C@@H](CC(C)C)C(=O)N[C@H](C(=O)NCC(N)=O)CSCC(=O)N[C@@H](Cc2ccc(O)cc2)C(=O)N(C)[C@@H](C)C(=O)N[C@@H](CC(N)=O)C(=O)N2CCC[C@H]2C(=O)N[C@@H](CNc2cnc3ccccc3n2)C(=O)N[C@@H](CC(C)C)C(=O)N2C[C@H](O)C[C@H]2C(=O)N[C@@H](Cc2c[nH]c3ccccc23)C(=O)N[C@@H](CCN)C(=O)N[C@@H](Cc2cn(CC(=O)O)c3ccccc23)C(=O)N1C` [Compound 11003] ({CH2CO}-Y[NMeA]NP[Dap](X6)L[Hyp]W[Dab][Trp(1-CH2COOH)][NMeNle][NMeNle]LCG-NH2; thioether N-14), the IC50 (as a rule, the point on the concentration scale where inhibition reaches its midpoint) was 7.1 nM.

`CCCC[C@H]1C(=O)N(C)[C@@H](CCCC)C(=O)N[C@@H](CC(C)C)C(=O)N[C@H](C(=O)NCC(N)=O)CSCC(=O)N[C@@H](Cc2ccc(O)cc2)C(=O)N(C)[C@@H](C)C(=O)N[C@@H](CC(N)=O)C(=O)N2CCC[C@H]2C(=O)N[C@@H](CNc2nc3ccccc3s2)C(=O)N[C@@H](CC(C)C)C(=O)N2C[C@H](O)C[C@H]2C(=O)N[C@@H](Cc2c[nH]c3ccccc23)C(=O)N[C@@H](CCNc2nc3ccccc3s2)C(=O)N[C@@H](Cc2cn(CC(=O)O)c3ccccc23)C(=O)N1C` [Compound 11002] ({CH2CO}-Y[NMeA]NP[Dap](X1)L[Hyp]W[Dab](X1)[Trp(1-CH2COOH)][NMeNle][NMeNle]LCG-NH2; thioether N-14): the concentration for half-maximal inhibition (IC50) came to 4.5 nM.

`CCCC[C@H]1C(=O)N(C)[C@@H](CCCC)C(=O)N[C@@H](CC(C)C)C(=O)N[C@H](C(=O)NCC(N)=O)CSCC(=O)N[C@@H](Cc2ccc(O)cc2)C(=O)N(C)[C@@H](C)C(=O)N[C@@H](CC(N)=O)C(=O)N2CCC[C@H]2C(=O)N[C@@H](CNc2nc3ccccc3s2)C(=O)N[C@@H](CC(C)C)C(=O)N2C[C@H](O)C[C@H]2C(=O)N[C@@H](Cc2c[nH]c3ccccc23)C(=O)N[C@@H](CCN)C(=O)N[C@@H](Cc2cn(CC(=O)OC)c3ccccc23)C(=O)N1C` [Compound 11004] ({CH2CO}-Y[NMeA]NP[Dap](X1)L[Hyp]W[Dab][Trp(1-CH2CO2Me)][NMeNle][NMeNle]LCG-NH2; thioether N-14): the concentration for half-maximal inhibition (IC50) was 5.6 nM.

The compound `CCCC[C@H]1C(=O)N(C)[C@@H](CCCC)C(=O)N[C@@H](CC(C)C)C(=O)N[C@H](C(=O)NCC(N)=O)CSCC(=O)N[C@@H](Cc2ccc(O)cc2)C(=O)N(C)[C@@H](C)C(=O)N[C@@H](CC(N)=O)C(=O)N2CCC[C@H]2C(=O)N[C@@H](CNc2nc3ccc(F)cc3s2)C(=O)N[C@@H](CC(C)C)C(=O)N2C[C@H](O)C[C@H]2C(=O)N[C@@H](Cc2c[nH]c3ccccc23)C(=O)N[C@@H](CCN)C(=O)N[C@@H](Cc2cn(CC(=O)O)c3ccccc23)C(=O)N1C` [Compound 11010] ({CH2CO}-Y[NMeA]NP[Dap](X21)L[Hyp]W[Dab][Trp(1-CH2COOH)][NMeNle][NMeNle]LCG-NH2; thioether N-14) gave a half-inhibitory concentration (IC50) of 45 nM.

Consider `CCCC[C@H]1C(=O)N(C)[C@@H](CCCC)C(=O)N[C@@H](CC(C)C)C(=O)N[C@H](C(=O)NCC(N)=O)CSCC(=O)N[C@@H](Cc2ccc(O)cc2)C(=O)N(C)[C@@H](C)C(=O)N[C@@H](CC(N)=O)C(=O)N2CCC[C@H]2C(=O)N[C@@H](CNc2cnccn2)C(=O)N[C@@H](CC(C)C)C(=O)N2C[C@H](O)C[C@H]2C(=O)N[C@@H](Cc2c[nH]c3ccccc23)C(=O)N[C@@H](CCNc2cnccn2)C(=O)N[C@@H](Cc2cn(CC(=O)O)c3ccccc23)C(=O)N1C` [Compound 1004] ({CH2CO}-Y[NMeA]NP[Dap](X15)L[Hyp]W[Dab](X15)[Trp(1-CH2COOH)][NMeNle][NMeNle]LCG-NH2; thioether N-14), for which the IC50 was 5.1 nM.

Turning to `CCCC[C@H]1C(=O)N(C)[C@@H](CCCC)C(=O)N[C@@H](CC(C)C)C(=O)N[C@H](C(=O)NCC(N)=O)CSCC(=O)N[C@@H](Cc2ccc(O)cc2)C(=O)N(C)[C@@H](C)C(=O)N[C@@H](CC(N)=O)C(=O)N2CCC[C@H]2C(=O)N[C@@H](CNc2ncnc3c2sc2ccccc23)C(=O)N[C@@H](CC(C)C)C(=O)N2C[C@H](O)C[C@H]2C(=O)N[C@@H](Cc2c[nH]c3ccccc23)C(=O)N[C@@H](CCNc2ncnc3c2sc2ccccc23)C(=O)N[C@@H](Cc2cn(CC(=O)O)c3ccccc23)C(=O)N1C` [Compound 21014] ({CH2CO}-Y[NMeA]NP[Dap](X16)L[Hyp]W[Dab](X16)[Trp(1-CH2COOH)][NMeNle][NMeNle]LCG-NH2; thioether N-14), the IC50 was determined as 5.7 nM.

Take `CCCC[C@H]1C(=O)N(C)[C@@H](CCCC)C(=O)N[C@@H](CC(C)C)C(=O)N[C@H](C(=O)NCC(N)=O)CSCC(=O)N[C@@H](Cc2ccc(O)cc2)C(=O)N(C)[C@@H](C)C(=O)N[C@@H](CC(N)=O)C(=O)N2CCC[C@H]2C(=O)N[C@@H](CNc2cnccn2)C(=O)N[C@@H](CC(C)C)C(=O)N2C[C@H](O)C[C@H]2C(=O)N[C@@H](Cc2c[nH]c3ccccc23)C(=O)N[C@@H](CCN)C(=O)N[C@@H](Cc2cn(CC(=O)O)c3ccccc23)C(=O)N1C` [Compound 1005] ({CH2CO}-Y[NMeA]NP[Dap](X15)L[Hyp]W[Dab][Trp(1-CH2COOH)][NMeNle][NMeNle]LCG-NH2; thioether N-14): the 50% inhibitory concentration (IC50) was found to be 11 nM.

As for `CCCC[C@H]1C(=O)N(C)[C@@H](CCCC)C(=O)N[C@@H](CC(C)C)C(=O)N[C@H](C(=O)NCC(N)=O)CSCC(=O)N[C@@H](Cc2ccc(O)cc2)C(=O)N(C)[C@@H](C)C(=O)N[C@@H](CC(N)=O)C(=O)N2CCC[C@H]2C(=O)N[C@@H](CNc2ncnc3c2[nH]c2ccc(C)cc23)C(=O)N[C@@H](CC(C)C)C(=O)N2C[C@H](O)C[C@H]2C(=O)N[C@@H](Cc2c[nH]c3ccccc23)C(=O)N[C@@H](CCN)C(=O)N[C@@H](Cc2cn(CC(=O)O)c3ccccc23)C(=O)N1C` [Compound 21003] ({CH2CO}-Y[NMeA]NP[Dap](X20)L[Hyp]W[Dab][Trp(1-CH2COOH)][NMeNle][NMeNle]LCG-NH2; thioether N-14), the IC50 was 13 nM.

For `CCCC[C@H]1C(=O)N(C)[C@@H](CCCC)C(=O)N[C@@H](CC(C)C)C(=O)N[C@H](C(=O)NCC(N)=O)CSCC(=O)N[C@@H](Cc2ccc(O)cc2)C(=O)N(C)[C@@H](C)C(=O)N[C@@H](CC(N)=O)C(=O)N2CCC[C@H]2C(=O)N[C@@H](CNc2ncnc(N3CCN(c4ccccc4)CC3)n2)C(=O)N[C@@H](CC(C)C)C(=O)N2C[C@H](O)C[C@H]2C(=O)N[C@@H](Cc2c[nH]c3ccccc23)C(=O)N[C@@H](CCNc2ncnc(N3CCN(c4ccccc4)CC3)n2)C(=O)N[C@@H](Cc2cn(CC(=O)O)c3ccccc23)C(=O)N1C` [Compound 1009] ({CH2CO}-Y[NMeA]NP[Dap](X19)L[Hyp]W[Dab](X19)[Trp(1-CH2COOH)][NMeNle][NMeNle]LCG-NH2; thioether N-14), the 50% inhibitory concentration (IC50) is 9.8 nM.

With `CCCC[C@H]1C(=O)N(C)[C@@H](CCCC)C(=O)N[C@@H](CC(C)C)C(=O)N[C@H](C(=O)NCC(N)=O)CSCC(=O)N[C@@H](Cc2ccc(O)cc2)C(=O)N(C)[C@@H](C)C(=O)N[C@@H](CC(N)=O)C(=O)N2CCC[C@H]2C(=O)N[C@@H](CNc2nc3c(F)cccc3s2)C(=O)N[C@@H](CC(C)C)C(=O)N2C[C@H](O)C[C@H]2C(=O)N[C@@H](Cc2c[nH]c3ccccc23)C(=O)N[C@@H](CCN)C(=O)N[C@@H](Cc2cn(CC(=O)O)c3ccccc23)C(=O)N1C` [Compound 11008] ({CH2CO}-Y[NMeA]NP[Dap](X9)L[Hyp]W[Dab][Trp(1-CH2COOH)][NMeNle][NMeNle]LCG-NH2; thioether N-14), the half-inhibitory concentration (IC50) was 5.3 nM.

The compound `CCCC[C@H]1C(=O)N(C)[C@@H](CCCC)C(=O)N[C@@H](CC(C)C)C(=O)N[C@H](C(=O)NCC(N)=O)CSCC(=O)N[C@@H](Cc2ccc(O)cc2)C(=O)N(C)[C@@H](C)C(=O)N[C@@H](CC(N)=O)C(=O)N2CCC[C@H]2C(=O)N[C@@H](CNc2ncnc3c2oc2ccccc23)C(=O)N[C@@H](CC(C)C)C(=O)N2C[C@H](O)C[C@H]2C(=O)N[C@@H](Cc2c[nH]c3ccccc23)C(=O)N[C@@H](CCN)C(=O)N[C@@H](Cc2cn(CC(=O)O)c3ccccc23)C(=O)N1C` [Compound 21013] ({CH2CO}-Y[NMeA]NP[Dap](X5)L[Hyp]W[Dab][Trp(1-CH2COOH)][NMeNle][NMeNle]LCG-NH2; thioether N-14) gave an IC50 of 3.4 nM.

`CCCC[C@H]1C(=O)N(C)[C@@H](CCCC)C(=O)N[C@@H](CC(C)C)C(=O)N[C@H](C(=O)NCC(N)=O)CSCC(=O)N[C@@H](Cc2ccc(O)cc2)C(=O)N(C)[C@@H](C)C(=O)N[C@@H](CC(N)=O)C(=O)N2CCC[C@H]2C(=O)N[C@@H](CNc2ncnc3c2oc2ccc(Cl)cc23)C(=O)N[C@@H](CC(C)C)C(=O)N2C[C@H](O)C[C@H]2C(=O)N[C@@H](Cc2c[nH]c3ccccc23)C(=O)N[C@@H](CCNc2ncnc3c2oc2ccc(Cl)cc23)C(=O)N[C@@H](Cc2cn(CC(=O)O)c3ccccc23)C(=O)N1C` [Compound 21006] ({CH2CO}-Y[NMeA]NP[Dap](X13)L[Hyp]W[Dab](X13)[Trp(1-CH2COOH)][NMeNle][NMeNle]LCG-NH2; thioether N-14) yielded an IC50 of 12 nM.

The values are drawn from patent US20230022400A1, “IMMUNOMODULATORS” (Bristol-Myers Squibb Company, priority 2019, published 2023).
